# Measurements from patent US4698350A, “1-ethyl-6-fluoro-1,4-dihydro- 7-(2,6-dimethyl-4-pyridinyl)-4-oxo-3-quinolinecarboxylic acid and antibacterial use thereof” (Sterling Drug Inc., priority 1984, dated 1987).
# Where two headings read alike, the source gives them in different places.
# Legend:
# [1] = tested on: S. faecalis; experiment: In vitro antibacterial activity; type: cell-based; conditions: all 4 strains of S. faecalis
# Method: (§1) Win 52,522 and Win 35,439 were solubilized in 0.1 ml of 0.5 N NaOH/mg of compound and diluted in sterile distilled water to 160 mcg/ml. Vancomycin and methicillin were solubilized in sterile distilled water to 1250 mcg/ml of base compound. The stock solutions were sterilized by filtration through membrane filters with a 0.45 μm pore size.
# (§2) The bacterial cultures listed in Table I (hereinbelow) were grown overnight at 37° C. in MHB for all cultures except the Streptococcus strains. These were grown in BHI+10% NHS. The overnight broth cultures were adjusted to an optical density of 0.10 (650 nm, B L Spectronic 20) in sterile distilled water and subsequently diluted to 6.7×10^6 cells/ml in MHB or BHI+1% NHS.
# (§3) Serial two-fold dilutions of the compound solutions were prepared in MHB (or in BHI+1% NHS for tests with Streptococci) and dispensed into 96-well microtiter trays in a volume of 0.1 ml/well using a Sandy Springs (Bellco Glass Co.) dispenser. The trays were then inoculated with 0.0015 ml of a suspension containing 6.7×10^6 cells/ml of the appropriate inoculum using a MIC-2000 inoculator (Dynatech Corp.) resulting in a final inoculum of approximately 1×10^4 cells/well or 1×10^5 cells/ml. The trays were incubated at 37° C. for 18-20 hours and the minimal inhibitory concentration (MIC), defined as the lowest concentration of compound to inhibit visible bacterial growth, was recorded.
# (§4) After the MIC values were recorded, the contents in the microtiter trays were thoroughly mixed on a Bellco Mini-orbital Shaker (Bellco Glass Co.) for 3 min. at a setting of 8. A portion (0.0015 ml) from each well was then transferred via an MIC-2000 inoculator to plates containing MHA or BHI agar+10% NHS. The plates were incubated at 37° C. for 18-20 hrs. The minimal bactericidal concentration (MBC), defined as the lowest concentration of compound that prevented the formation of a recognizable colony on the agar surface, was recorded.
# [2] = tested on: E. coli (8739); experiment: In vitro antibacterial MIC/MBC test; type: cell-based; conditions: Escherichia coli, ATCC8739; E. coli ATCC No. 8739
# Procedure, shortened: (§5)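 Overnight cultures were adjusted by OD650 and diluted, then inoculated into serially diluted compound in MHB or, for streptococci, BHI+1% NHS at about 1×10^5 cells/ml. After 18-20 hours at 37° C. the MIC was read visually, and wells were replated on agar to obtain the MBC.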
# [3] = tested on: E. coli 198; experiment: In vitro antibacterial MIC/MBC test; type: cell-based; conditions: Escherichia coli
# Procedure, shortened: as §5
# [4] = tested on: E. coli 2350; experiment: In vitro antibacterial MIC/MBC test; type: cell-based; conditions: Escherichia coli
# Procedure, shortened: as §5
# [5] = tested on: E. coli AH719; experiment: In vitro antibacterial MIC/MBC test; type: cell-based; conditions: Escherichia coli
# Procedure, shortened: as §5
# [6] = tested on: E. coli Vogel; experiment: In vitro antibacterial MIC/MBC test; type: cell-based; conditions: Escherichia coli
# Procedure, shortened: as §5
# [7] = tested on: P. aeruginosa (15442); experiment: In vitro antibacterial MIC/MBC test; type: cell-based; conditions: Pseudomonas aeruginosa, ATCC15442; P. aeruginosa ATCC No. 15442
# Procedure, shortened: as §5
# [8] = tested on: P. aeruginosa (27853); experiment: In vitro antibacterial MIC/MBC test; type: cell-based; conditions: Pseudomonas aeruginosa, ATCC27853; P. aeruginosa ATCC No. 27853
# Procedure, shortened: as §5
# [9] = tested on: P. aeruginosa (7700); experiment: In vitro antibacterial MIC/MBC test; type: cell-based; conditions: Pseudomonas aeruginosa, ATCC7700; P. aeruginosa ATCC No. 7700
# Procedure, shortened: as §5
# [10] = tested on: P. aeruginosa (9027); experiment: In vitro antibacterial MIC/MBC test; type: cell-based; conditions: Pseudomonas aeruginosa, ATCC9027; P. aeruginosa ATCC No. 9027
# Procedure, shortened: as §5
# [11] = tested on: P. aeruginosa MGH-2; experiment: In vitro antibacterial MIC/MBC test; type: cell-based; conditions: Pseudomonas aeruginosa, MGH2
# Procedure, shortened: as §5
# [12] = tested on: P. aeruginosa; experiment: In vitro MIC/MBC summary (Table II); type: cell-based, Pseudomonas aeruginosa; conditions: Pseudomonas aeruginosa, 5 P. aeruginosa strains
# Method: as §1, §2, §3, §4
# [13] = tested on: Staphylococcus aureus Smith; experiment: Mouse protection test, S. aureus Smith infection, multiple dose; type: in vivo, ICR mice; Staphylococcus aureus; conditions: for ED50: Staphylococcus aureus, 168 h, read-out: Protective Dose 50% (95% Confidence Limits)
# Method: (§6) ICR mice, female, 18-20 grams each.
# (§7) Solutions of Win 52,522 and Win 35,439 were prepared by dissolving the appropriate weight of drug in 0.3 to 0.4 ml of 1 N NaOH and then bringing the solutions to the desired volume with distilled water. Methicillin and vancomycin were dissolved directly in distilled water.
# Two and one-half ml of pool were added to 247.5 ml of 5% gastric mucin to provide the test inoculum containing 2.1×10^4 cells/ml.
# (§8) Mice were inoculated intraperitoneally with 0.5 ml of the bacterial test inoculum.
# 2. Multiple dose test--Mice were medicated subcutaneously (0.2 ml) or orally (0.5 ml) at the following times: six hours and one hour preinfection (infection at 2 pm) and twice a day (8 a.m. and 3:30 p.m.) for the next two successive days.
# (§9) Deaths were recorded daily for seven days for all tests. Fifty percent protective dose values (PD50's) were calculated using probit analysis [SAS Users Guide: Statistics, 1982 Edition, SAS Institute, Inc., Cary, N.C.].
# [14] = tested on: Escherichia coli Vogel; experiment: Mouse protection test, E. coli Vogel infection; type: in vivo, ICR mice; Escherichia coli; conditions: for ED50: Escherichia coli, 168 h, once one-half hour postinfection, read-out: Protective Dose 50% (95% Confidence Limits)
# Method: as §6, §7
# The culture was inoculated into 10 ml of Brain Heart Infusion broth and grown statically for 16 hours at 37° C. Fresh tubes of the same broth were inoculated with 0.1 ml portions of the 16 hour broth culture and incubation continued for 5 hours at 37° C. The 5 hour broth culture was finally diluted with saline to provide the test inoculum containing 4.0×10^7 cells/ml.
# as §8
# Mice were medicated subcutaneously or orally once (0.5 ml) one-half hour postinfection.
# as §9
smiles,measurement,setting,value
CN[C@H](CC(C)C)C(=O)N[C@H]1C(=O)N[C@@H](CC(N)=O)C(=O)N[C@H]2C(=O)N[C@H]3C(=O)N[C@H](C(=O)N[C@H](C(=O)O)c4cc(O)cc(O)c4-c4cc3ccc4O)[C@H](O)c3ccc(c(Cl)c3)Oc3cc2cc(c3O[C@@H]2O[C@H](CO)[C@@H](O)[C@H](O)[C@H]2O[C@H]2C[C@](C)(N)[C@H](O)[C@H](C)O2)Oc2ccc(cc2Cl)[C@H]1O [Vancomycin],bactericidal / bacteriostatic,[1],bacteriostatic
"CCn1cc(C(=O)O)c(=O)c2ccc(-c3cc(C)nc(C)c3)cc21 [Win 35,439, 1-ethyl-1,4-dihydro-7-(2,6-dimethyl-4-pyridinyl)-4-oxo-3-quinolinecarboxylic acid]",MBC,[2],0.5 µg/mL
same,MIC,[2],0.5 µg/mL
same,MBC,[3],2 µg/mL
same,MIC,[3],2 µg/mL
same,MBC,[4],0.5 µg/mL
same,MIC,[4],0.5 µg/mL
same,MBC,[5],0.5 µg/mL
same,MIC,[5],0.5 µg/mL
same,MBC,[6],2 µg/mL
same,MIC,[6],2 µg/mL
same,MBC,[7],> 16 µg/mL
same,MIC,[7],> 16 µg/mL
same,MBC,[8],> 16 µg/mL
same,MIC,[8],16 µg/mL
same,MBC,[9],> 16 µg/mL
same,MIC,[9],16 µg/mL
same,MBC,[10],> 16 µg/mL
same,MIC,[10],8 µg/mL
same,MBC,[11],16 µg/mL
same,MIC,[11],8 µg/mL
same,MIC50,[12],16 µg/mL
same,MIC90,[12],16 µg/mL
same,MBC,[12]; read-out: MBC 50%,> 16 µg/mL
same,MBC,[12]; read-out: MBC 90%,> 16 µg/mL
same,Survivors/Total,[13]; 3.13 mg/kg po,0/10
same,Survivors/Total,[13]; 3.13 mg/kg sc,1/10
same,Survivors/Total,[13]; 6.25 mg/kg po,4/10
same,Survivors/Total,[13]; 6.25 mg/kg sc,3/10
same,Survivors/Total,[13]; 12.5 mg/kg po,9/10
same,Survivors/Total,[13]; 12.5 mg/kg sc,10/10
same,Survivors/Total,[13]; 25 mg/kg po,10/10
same,Survivors/Total,[13]; 25 mg/kg sc,10/10
same,ED50,[13]; po,7.2 mg/kg
same,ED50,[13]; sc,7.1 mg/kg
same,Survivors/Total,[14]; 3.13 mg/kg po,0/10
same,Survivors/Total,[14]; 3.13 mg/kg sc,1/10
same,Survivors/Total,[14]; 6.25 mg/kg po,0/10
same,Survivors/Total,[14]; 6.25 mg/kg sc,0/10
same,Survivors/Total,[14]; 12.5 mg/kg po,2/10
same,Survivors/Total,[14]; 12.5 mg/kg sc,4/10
same,Survivors/Total,[14]; 25 mg/kg po,9/10
same,Survivors/Total,[14]; 25 mg/kg sc,10/10
same,ED50,"[14]; po, po",16.5 mg/kg
same,ED50,"[14]; sc, sc",13.5 mg/kg
